Experimental data taken from patent US10385055B2, “Tricyclic gyrase inhibitors” (Merck Sharp & Dohme Corp., priority 2013, dated 2019).
Values after ≈ are worked out from the molar mass of the structure shown. Values joined by “and” are separate entries in the source; they are usually repeats but may differ in a detail not shown here. Identical values can stand only once.

What was measured:
[1] = test system: E. coli; assay: Anti-bacterial efficacy (MIC), E. coli; assay type: cell-based; conditions: for MIC Ec: Table 2; for MIC: Escherichia coli, Table 3
[2] = test system: S. aureus; assay: Anti-bacterial efficacy (MIC), S. aureus; assay type: cell-based; conditions: for MIC Sa: Table 2; for MIC: Staphylococcus aureus, Table 3
[3] = molecular target: T1, hERG (Homo sapiens, UniProt Q12809); assay: hERG inhibition, Cerep automated patch-clamp assay in Chinese Hamster Ovary K1 cells; assay type: cell-based; conditions: CHO K1 cells, tail current, read-out: hREG IC50
T1 construct: host or cells: Chinese Hamster Ovary K1 cells
Procedure: A Cerep automated patch-clamp assay using Chinese Hamster Ovary K1 cells was used to measure hERG IC50 values. The degree of inhibition (%) was obtained by measuring the tail current amplitude, which is induced by a one second test pulse to −40 mV after a two second pulse to +20 mV, before and after drug incubation (the difference in current was normalized to control and multiplied by 100 to obtain the percent inhibition).
Concentration (log) response curves were fitted to a logistic equation (three parameters assuming complete block of the current at very high test compound concentrations) to generate estimates of the 50% inhibitory convcentration (IC50). The concentration-response relationship of each compound was constructed from the percentage reductions of current amplitude by sequential concentrations. The MIC and hERG IC50 values are provided in Table 2 below for the compounds tested.

[4] = test system: A. baumannii; assay: Anti-bacterial efficacy (MIC), A. baumannii; assay type: cell-based; conditions: for MIC Ab: Table 2; for MIC: Acinetobacter baumannii, Table 3
[5] = test system: K. pneumoniae; assay: Anti-bacterial efficacy (MIC), K. pneumoniae; assay type: cell-based; conditions: for MIC Kpn: Table 2; for MIC: Klebsiella pneumoniae, Table 3
[6] = test system: P. aeruginosa; assay: Anti-bacterial efficacy (MIC), P. aeruginosa; assay type: cell-based; conditions: for MIC Pa: Table 2; for MIC: Pseudomonas aeruginosa, Table 3
[7] = In vivo mouse PK, oral bioavailability; conditions: plasma, AUC oral / AUC intravenous, read-out: Mouse % F
Procedure: Typical protocol is a single dose intravenous and oral (gavage) administration with blood collection from each animal by cardiac puncture at selected (6 to 8) time points (n=3 mice per time point) into a tube containing an appropriate anticoagulant. The blood is centrifuged and the resulting plasma removed for subsequent analysis. After proper sample preparation, the plasma concentrations of a test compound are determined by LC-MS/MS and the pharmacokinctics (namely, area-under-curve or AUC) of the concentration-time profile from oral administration is compared with the corresponding pharmacokinetics from intravenous administration. […] In addition, Caco values are shown.

[8] = test system: Caco-2 cell monolayer; assay: Caco-2 cell monolayer permeability; assay type: in vitro ADME, human; conditions: Caco-2 monolayer permeability
Source text: Oral bioavailability can be assessed by various methods such as measuring the Caco-2 cell monolayer permeability, and measuring pharmacokinetic properties by calculating the ratio of the AUC from oral administration to the AUC from intravenous administration. Both methods are used to assess compounds here as illustrated in Examples 8-9. In some aspects, compounds herein show the highest membrane (Caco-2 cell monolayer) permeability among all the compounds tested. The Caco-2 cell line is a continuous cell of heterogeneous human epithelial colorectal adenocarcinoma cells that when cultured under specific conditions the cells become differentiated and polarized such that their phenotype, morphologically and functionally, resembles the enterocytes lining the small intestine. Thus, the Caco-2 monolayer is widely used across the pharmaceutical industry as an in vitro model of the human small intestinal mucosa to predict the absorption of orally-administered drugs.
Caco-2 human colon carcinoma cell line (Caco-2) was used as a model system for intestinal epithelial permeability. There is similarity in uptake and barrier properties between this cell system and the small intestinal epithelial layer. See., Hidalgo I J, et al., Gastroenterology. 1989 March; 96(3):736-49. Characterization of the human colon carcinoma cell line (Caco-2) as a model system for intestinal epithelial permeability.

[9] = Dog oral bioavailability; conditions: in vivo, read-out: Dog % F

T1 sequence (Q12809 whole entry): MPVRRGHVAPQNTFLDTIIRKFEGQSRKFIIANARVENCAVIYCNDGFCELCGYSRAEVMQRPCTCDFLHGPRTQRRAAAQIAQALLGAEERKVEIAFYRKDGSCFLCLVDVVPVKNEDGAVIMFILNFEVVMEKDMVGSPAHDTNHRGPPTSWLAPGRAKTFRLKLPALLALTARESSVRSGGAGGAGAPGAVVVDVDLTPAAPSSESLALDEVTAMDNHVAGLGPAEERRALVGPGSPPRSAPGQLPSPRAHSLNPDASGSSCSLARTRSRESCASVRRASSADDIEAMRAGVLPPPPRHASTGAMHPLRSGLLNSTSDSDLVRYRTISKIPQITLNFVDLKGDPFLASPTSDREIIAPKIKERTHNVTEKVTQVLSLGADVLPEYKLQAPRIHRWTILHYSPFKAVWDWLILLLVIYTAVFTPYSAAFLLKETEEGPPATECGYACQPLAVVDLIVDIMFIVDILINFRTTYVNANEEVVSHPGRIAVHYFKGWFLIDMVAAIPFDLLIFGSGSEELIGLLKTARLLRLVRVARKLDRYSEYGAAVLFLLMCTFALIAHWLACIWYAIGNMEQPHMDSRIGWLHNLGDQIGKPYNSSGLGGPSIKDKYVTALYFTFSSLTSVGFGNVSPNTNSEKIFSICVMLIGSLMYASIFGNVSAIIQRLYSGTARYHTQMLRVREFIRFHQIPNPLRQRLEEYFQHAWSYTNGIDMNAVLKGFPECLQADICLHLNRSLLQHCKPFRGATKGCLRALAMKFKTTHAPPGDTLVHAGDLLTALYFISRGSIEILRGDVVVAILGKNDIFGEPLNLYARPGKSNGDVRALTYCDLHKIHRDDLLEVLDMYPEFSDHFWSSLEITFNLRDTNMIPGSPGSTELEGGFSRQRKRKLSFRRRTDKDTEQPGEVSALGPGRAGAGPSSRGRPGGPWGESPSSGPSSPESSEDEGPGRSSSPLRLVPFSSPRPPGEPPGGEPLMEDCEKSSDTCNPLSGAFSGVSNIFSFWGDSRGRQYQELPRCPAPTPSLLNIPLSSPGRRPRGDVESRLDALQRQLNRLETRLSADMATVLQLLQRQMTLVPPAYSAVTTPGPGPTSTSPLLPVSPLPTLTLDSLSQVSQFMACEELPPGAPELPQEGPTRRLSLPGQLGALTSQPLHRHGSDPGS

Compound | MIC Ec [1] | MIC Sa [2] | IC50 [3] | MIC Ab [4] | MIC Kpn [5] | MIC Pa [6] | MIC [1] | bioavailability [7] | MIC [2] | MIC [4] | MIC [5] | Caco [8] | MIC [6] | bioavailability [9]
CNc1cc(F)cc2c1[nH]c1nc(Oc3cnc(C)nc3)nc(N3CC4(CCC4N)C3)c12 (stereo not shown) | 0.25 µg/mL (≈ 0.575 µM) | ≤0.016 µg/mL | 16 µM | 0.5 µg/mL (≈ 1.15 µM) | 2 µg/mL (≈ 4.6 µM) | 1 µg/mL (≈ 2.3 µM) | – | – | – | – | – | – | – | –
CNc1cc(F)cc2c1[nH]c1nc(Oc3cnc(C)nc3)nc(N3CC4(CCC4O)C3)c12 (stereo not shown) | 1 µg/mL (≈ 2.3 µM) | ≤0.016 µg/mL | 100 µM | 4 µg/mL (≈ 9.19 µM) | 4 µg/mL (≈ 9.19 µM) | >16 µg/mL | – | – | – | – | – | – | – | –
CNc1cc(F)cc2c1[nH]c1nc(Oc3cnc(C)nc3)nc(N3CC4CC3CC4N)c12 (stereo not shown) | 0.13 µg/mL (≈ 0.299 µM) | ≤0.016 µg/mL | 4 µM | 0.5 µg/mL (≈ 1.15 µM) | 2 µg/mL (≈ 4.6 µM) | 1 µg/mL (≈ 2.3 µM) | – | – | – | – | – | – | – | –
CNc1cc(F)cc2c1[nH]c1nc(Oc3cnc(C)nc3)nc(N3CC4CC3CC4O)c12 (stereo not shown) | 1 µg/mL (≈ 2.3 µM) | ≤0.016 µg/mL | 71 µM | 4 µg/mL (≈ 9.19 µM) | 8 µg/mL (≈ 18.4 µM) | >16 µg/mL | – | – | – | – | – | – | – | –
CNc1cc(F)cc2c1[nH]c1nc(Oc3cnc(C)nc3)nc(N3CC4CC(N)C4C3)c12 (stereo not shown) | 0.25 µg/mL (≈ 0.575 µM) | ≤0.016 µg/mL | 1 µM | 0.25 µg/mL (≈ 0.575 µM) | 2 µg/mL (≈ 4.6 µM) | 1 µg/mL (≈ 2.3 µM) | – | – | – | – | – | – | – | –
CNc1cc(F)cc2c1[nH]c1nc(Oc3cnc(C)nc3)nc(N3CC4CC(O)C4C3)c12 (stereo not shown) | 0.13 µg/mL (≈ 0.299 µM) | ≤0.016 µg/mL | 20 µM | 0.5 µg/mL (≈ 1.15 µM) | 1 µg/mL (≈ 2.3 µM) | 16 µg/mL (≈ 36.7 µM) | – | – | – | – | – | – | – | –
CNc1cc(F)cc2c1[nH]c1nc(Oc3cnc(C)nc3)nc(N3CC4C(N)C4C3)c12 (stereo not shown) | 0.13 µg/mL (≈ 0.309 µM) | ≤0.016 µg/mL | 9.5 µM | 0.25 µg/mL (≈ 0.595 µM) | 2 µg/mL (≈ 4.76 µM) | 4 µg/mL (≈ 9.51 µM) | – | – | – | – | – | – | – | –
CNc1cc(F)cc2c1[nH]c1nc(Oc3cnc(C)nc3)nc(N3CC4C(O)C4C3)c12 (stereo not shown) | 0.25 µg/mL (≈ 0.593 µM) | ≤0.016 µg/mL | 41 µM | 0.5 µg/mL (≈ 1.19 µM) | 1 µg/mL (≈ 2.37 µM) | >16 µg/mL | – | – | – | – | – | – | – | –
CNc1cc(F)c(F)c2c1[nH]c1nc(Oc3cnc([C@H](C)O)nc3)nc(N3C[C@H]4CC3C[C@H]4N)c12 [1.1] | – | – | – | – | – | – | 0.25 µg/mL (≈ 0.518 µM) | < 2% | ≤ 0.016 µg/mL | 4 µg/mL (≈ 8.29 µM) | 1 µg/mL (≈ 2.07 µM) | <0.1 10^−8 cm/s | 2 µg/mL (≈ 4.15 µM) | –
CNc1cc(F)c(F)c2c1[nH]c1nc(Oc3cnc([C@H](C)O)nc3)nc(N3CC4(CCC4N)C3)c12 (stereo partly shown) [1.2] | – | – | – | – | – | – | 0.13 µg/mL (≈ 0.269 µM) | < 2% | ≤ 0.016 µg/mL | 2 µg/mL (≈ 4.15 µM) | 1 µg/mL (≈ 2.07 µM) | – | 1 µg/mL (≈ 2.07 µM) | –
CNc1cc(F)cc2c1[nH]c1nc(Oc3cnc(C)nc3)nc(N3C[C@H]4C[C@@H](O)[C@H]4C3)c12 [1.3] | – | – | – | – | – | – | 0.13 µg/mL (≈ 0.299 µM) | 25% | ≤ 0.016 µg/mL | 1 µg/mL (≈ 2.3 µM) | 0.5 µg/mL (≈ 1.15 µM) | 5.5 10^−8 cm/s and 6.3 10^−8 cm/s | 16 µg/mL (≈ 36.7 µM) | 50%
CNc1cc(F)cc2c1[nH]c1nc(Oc3cnc(C)nc3)nc(N3C[C@@H]4[C@@H](O)[C@@H]4C3)c12 [1.4] | – | – | – | – | – | – | 0.5 µg/mL (≈ 1.19 µM) | 15% | ≤ 0.016 µg/mL | 2 µg/mL (≈ 4.75 µM) | 1 µg/mL (≈ 2.37 µM) | 7.5 10^−8 cm/s | > 16 µg/mL | –
